Counter-ions that a name gives are not always drawn. Like-named read-outs stand apart in the source and are kept apart here.
How the values were obtained:
[1] = target: human KDR protein in HEK-293 cells (Homo sapiens (Human), UniProt P35968); test: KDR Cell Assay (phospho-KDR in HEK-293 cells expressing inducible KDR); type: cell-based; settings: pKDR Cell HEK 10% FBS IC50, HEK-293 cells expressing inducible KDR, VEGF stimulated
Method in brief: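 HEK-293 cells with inducible human KDR were treated with compound for 1 h in DMEM (0.25% DMSO final), then lysed. Phospho-KDR was quantified by Meso Scale immunoassay, expressed as percent of control, and IC50 taken where a 4-parameter logistic fit crossed 50 POC.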

[2] = target: Kif5b-RET fusion protein in HEK-293 cells (Homo sapiens, UniProt P07949); test: cell-based
Sequence of Kif5b-RET fusion protein in HEK-293 cells (P07949 29-1114 limits assumed): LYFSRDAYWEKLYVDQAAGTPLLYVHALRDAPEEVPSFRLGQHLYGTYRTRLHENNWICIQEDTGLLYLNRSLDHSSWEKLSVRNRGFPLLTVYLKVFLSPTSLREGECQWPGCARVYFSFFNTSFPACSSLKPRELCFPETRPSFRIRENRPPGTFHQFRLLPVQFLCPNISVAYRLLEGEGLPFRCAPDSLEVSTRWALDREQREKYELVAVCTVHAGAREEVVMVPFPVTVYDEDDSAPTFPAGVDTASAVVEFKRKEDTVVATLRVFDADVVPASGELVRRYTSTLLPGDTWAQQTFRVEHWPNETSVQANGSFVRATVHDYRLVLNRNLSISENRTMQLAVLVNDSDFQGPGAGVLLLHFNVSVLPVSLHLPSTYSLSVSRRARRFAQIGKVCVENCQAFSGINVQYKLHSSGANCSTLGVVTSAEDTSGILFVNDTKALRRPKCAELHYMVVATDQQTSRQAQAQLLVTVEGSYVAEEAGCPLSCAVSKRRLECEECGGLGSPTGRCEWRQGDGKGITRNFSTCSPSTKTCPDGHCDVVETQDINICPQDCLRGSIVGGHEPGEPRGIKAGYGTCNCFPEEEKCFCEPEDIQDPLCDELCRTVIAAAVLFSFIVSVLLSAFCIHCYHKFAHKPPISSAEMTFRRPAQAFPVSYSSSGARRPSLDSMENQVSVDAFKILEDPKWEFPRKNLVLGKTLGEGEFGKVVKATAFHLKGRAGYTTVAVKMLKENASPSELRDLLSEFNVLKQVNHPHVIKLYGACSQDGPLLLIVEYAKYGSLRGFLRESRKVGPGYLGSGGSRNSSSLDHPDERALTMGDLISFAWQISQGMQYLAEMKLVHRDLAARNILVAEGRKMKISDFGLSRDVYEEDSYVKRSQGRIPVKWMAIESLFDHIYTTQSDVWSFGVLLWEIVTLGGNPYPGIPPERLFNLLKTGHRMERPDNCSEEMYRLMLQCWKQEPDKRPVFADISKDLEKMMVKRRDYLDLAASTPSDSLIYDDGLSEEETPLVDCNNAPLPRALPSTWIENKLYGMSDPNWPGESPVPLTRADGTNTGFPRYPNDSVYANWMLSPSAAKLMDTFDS
Experimental: The cellular potency of a compound inhibiting RET kinase was determined in HEK-293 cells expressing a Kif5b-RET fusion protein. Briefly, HEK-293 cells expressing a Kif5b-RET fusion protein were plated at 50K cells/well in 96 well poly-D-Lysine coated plates the day prior to the assay. The cells were incubated for 1 hour with test compound in DMEM (Dulbecco's Modified Eagle Medium) at a final DMSO concentration of 0.5%. […] After 1 hour the media was removed, the cells were fixed with 3.8% formaldehyde for 20 min, washed with PBS, and permeabilized for 10 min with 100% methanol. […] All antibodies were diluted in LI-COR Block containing 0.05% Tween. The plates were washed with PBS-0.05% Tween20, 100 μL PBS was added to each well, and the plates were read on a LI-COR Aerius fluorescent plate reader. The phospho-RET signal was normalized to the GAPDH signal. […] The IC50 value is the point where the curve crosses 50 POC.

[3] = target: N-terminal GST tagged recombinant human RET cytoplasmic domain (aa 658-end), wild type RET kinase (Homo sapiens (Human), UniProt P07949); test: RET Enzyme Assay (HTRF KinEASE-TK), wild type RET; type: biochemical
Sequence of N-terminal GST tagged recombinant human RET cytoplasmic domain (aa 658-end), wild type RET kinase (P07949 658-1114): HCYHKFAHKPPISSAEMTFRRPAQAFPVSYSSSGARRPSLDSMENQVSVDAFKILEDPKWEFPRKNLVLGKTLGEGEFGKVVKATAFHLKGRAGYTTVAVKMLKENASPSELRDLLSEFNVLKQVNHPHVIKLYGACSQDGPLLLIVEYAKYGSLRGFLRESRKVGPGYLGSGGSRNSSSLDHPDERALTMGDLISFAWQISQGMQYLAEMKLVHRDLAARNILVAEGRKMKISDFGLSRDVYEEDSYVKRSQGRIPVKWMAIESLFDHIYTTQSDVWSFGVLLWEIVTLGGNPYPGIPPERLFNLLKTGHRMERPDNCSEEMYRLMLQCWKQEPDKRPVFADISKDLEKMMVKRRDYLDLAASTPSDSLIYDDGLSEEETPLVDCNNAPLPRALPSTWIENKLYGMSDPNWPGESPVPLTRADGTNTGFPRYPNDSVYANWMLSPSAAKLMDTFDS

[4] = read-out: KIF5B-RET pTYR1062 Cell IC50
[5] = HEK-293 cells expressing Kif5b-RET, read-out: KIF5B-RET pTYR1062 Cell IC50
[6] = HEK-293 cells expressing Kif5b-RET, phospho-RET(Tyr1062), read-out: KIF5B-RET pTYR1062 Cell IC50

Sequence of human KDR protein in HEK-293 cells (P35968 20-1356): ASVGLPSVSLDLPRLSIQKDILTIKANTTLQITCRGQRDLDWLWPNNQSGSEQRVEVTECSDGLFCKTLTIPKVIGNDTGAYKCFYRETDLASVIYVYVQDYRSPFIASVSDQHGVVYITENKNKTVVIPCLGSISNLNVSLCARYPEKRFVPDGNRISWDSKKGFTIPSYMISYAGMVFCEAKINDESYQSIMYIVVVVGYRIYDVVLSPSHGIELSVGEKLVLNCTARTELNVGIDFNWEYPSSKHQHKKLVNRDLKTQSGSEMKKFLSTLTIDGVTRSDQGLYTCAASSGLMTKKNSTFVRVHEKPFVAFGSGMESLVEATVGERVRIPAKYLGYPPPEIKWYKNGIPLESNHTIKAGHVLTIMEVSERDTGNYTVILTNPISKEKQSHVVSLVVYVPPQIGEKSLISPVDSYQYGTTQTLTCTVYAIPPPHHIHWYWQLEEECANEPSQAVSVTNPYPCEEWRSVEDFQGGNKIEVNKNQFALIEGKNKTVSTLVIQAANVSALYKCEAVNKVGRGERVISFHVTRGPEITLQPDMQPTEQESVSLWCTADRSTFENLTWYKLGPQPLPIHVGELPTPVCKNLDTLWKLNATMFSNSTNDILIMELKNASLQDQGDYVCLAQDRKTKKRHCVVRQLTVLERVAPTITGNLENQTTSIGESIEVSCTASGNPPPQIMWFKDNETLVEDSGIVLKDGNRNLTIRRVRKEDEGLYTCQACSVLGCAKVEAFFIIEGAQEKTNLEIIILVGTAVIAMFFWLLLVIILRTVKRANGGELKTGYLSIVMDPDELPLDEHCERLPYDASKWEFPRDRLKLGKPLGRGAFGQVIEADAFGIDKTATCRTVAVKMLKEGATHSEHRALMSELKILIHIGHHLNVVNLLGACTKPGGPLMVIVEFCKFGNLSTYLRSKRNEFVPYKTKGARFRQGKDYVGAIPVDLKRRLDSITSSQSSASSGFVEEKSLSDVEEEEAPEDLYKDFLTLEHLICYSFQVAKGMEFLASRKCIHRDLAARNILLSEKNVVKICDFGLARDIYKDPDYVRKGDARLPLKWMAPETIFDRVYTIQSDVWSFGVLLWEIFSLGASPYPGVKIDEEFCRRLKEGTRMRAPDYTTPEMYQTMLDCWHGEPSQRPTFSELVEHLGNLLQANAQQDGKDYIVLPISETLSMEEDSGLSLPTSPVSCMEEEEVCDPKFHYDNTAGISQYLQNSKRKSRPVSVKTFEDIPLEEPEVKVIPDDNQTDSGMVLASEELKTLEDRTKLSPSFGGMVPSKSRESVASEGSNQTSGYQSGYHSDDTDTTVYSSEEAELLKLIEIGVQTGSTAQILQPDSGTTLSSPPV

Row | Structure (SMILES) | IC50 ([3]; wild type RET, 1 mM ATP) [nM] | IC50 [2, 5] [nM] | other results
1 | Cn1cc(-c2cc(-c3ccc(N4CCNCC4)nc3)c3c(Cl)cnn3c2)cn1 [Example 326, 3-chloro-6-(1-methyl-1H-pyrazol-4-yl)-4-(6-(piperazin-1-yl)pyridine-3-yl)pyrazolo[1,5-a]pyridine dihydrochloride] | 75 |  | IC50 ([1]; 10% FBS): 579 nM; IC50 [2, 4]: 70.4 nM
2 | N#Cc1cnn2cc(-c3cn[nH]c3)cc(-c3ccc(N4CCN(Cc5ccccc5)CC4)nc3)c12 [Example 591, 4-(6-(4-benzylpiperazin-1-yl)pyridin-3-yl)-6-(1H-pyrazol-4-yl)pyrazolo[1,5-a]pyridine-3-carbonitrile] | 5.7 | 4.1 | IC50 [1]: 1490 nM
3 | COc1ccc(CN2CCN(c3ccc(-c4cc(-c5cnn(CCS(=O)(=O)C(C)C)c5)cn5ncc(C#N)c45)cn3)CC2)cn1 [Example 703, 6-(1-(2-(isopropylsulfonyl)ethyl)-1H-pyrazol-4-yl)-4-(6-(4-((6-methoxypyridin-3-yl)methyl)piperazin-1-yl)pyridin-3-yl)pyrazolo[1,5-a]pyridine-3-carbonitrile] | 16.4 | 9.8 | 
4 | CCc1nn(CC)cc1-c1cc(-c2ccc(N3CCN(Cc4ccccc4)CC3)nc2)c2c(C#N)cnn2c1 [Example 615, 4-(6-(4-benzylpiperazin-1-yl)pyridin-3-yl)-6-(1,3-diethyl-1H-pyrazol-4-yl)pyrazolo[1,5-a]pyridine-3-carbonitrile] | 60 |  | IC50 [2]: 117 nM
5 | Cc1nn(C)c(C)c1-c1cc(-c2ccc(N3CCN(Cc4ccccc4)CC3)nc2)c2c(C#N)cnn2c1 [Example 613, 4-(6-(4-benzylpiperazin-1-yl)pyridin-3-yl)-6-(1,3,5-trimethyl-1H-pyrazol-4-yl)pyrazolo[1,5-a]pyridine-3-carbonitrile] | 122 |  | IC50 [2]: 361 nM
6 | COc1ccc(CN2CCN(c3ccc(-c4cc(-c5cnn(C)c5)cn5ncc(Cl)c45)cn3)CC2)cn1 [Example 742, 3-chloro-4-(6-(4-((6-methoxypyridin-3-yl)methyl)piperazin-1-yl)pyridin-3-yl)-6-(1-methyl-1H-pyrazol-4-yl)pyrazolo[1,5-a]pyridine] | 37.3 |  | IC50 [2]: 38.5 nM
7 | CN(C)CCCC(=O)N1CCN(c2ccc(-c3cc(-c4cnn(C)c4)cn4ncc(C#N)c34)cn2)CC1 [Example 52, 4-(6-(4-(4-(dimethylamino)butanoyl)piperazin-1-yl)pyridin-3-yl)-6-(1-methyl-1H-pyrazol-4-yl)pyrazolo[1,5-a]pyridine-3-carbonitrile bis(2,2,2-trifluoroacetate)] |  |  | IC50 [2, 6]: 340 nM; IC50 [3]: 17.7 nM
8 | CN(C)CCC(=O)N1CCN(c2ccc(-c3cc(-c4cnn(C)c4)cn4ncc(C#N)c34)cn2)CC1 [Example 33, 4-(6-(4-(3-(dimethylamino)propanoyl)piperazin-1-yl)pyridin-3-yl)-6-(1-methyl-1H-pyrazol-4-yl)pyrazolo[1,5-a]pyridine-3-carbonitrile bis(2,2,2-trifluoroacetate)] | 42.9 |  | IC50 [2, 4]: 310 nM
9 | Cn1cc(-c2cc(-c3ccc(N4CCN(Cc5ccc(OCC(F)(F)F)nc5)CC4)nc3)c3c(C#N)cnn3c2)cn1 [Example 674, 6-(1-methyl-1H-pyrazol-4-yl)-4-(6-(4-((6-(2,2,2-trifluoroethoxy)pyridin-3-yl)methyl)piperazin-1-yl)pyridin-3-yl)pyrazolo[1,5-a]pyridine-3-carbonitrile] | 42.5 | 74.7 | 
10 | COc1ccc(CN2CCN(c3ccc(-c4cc(-c5cnn(CCOC(C)C)c5)cn5ncc(C#N)c45)cn3)CC2)cn1 [Example 704, 6-(1-(2-isopropoxyethyl)-1H-pyrazol-4-yl)-4-(6-(4-((6-methoxypyridin-3-yl)methyl)piperazin-1-yl)pyridin-3-yl)pyrazolo[1,5-a]pyridine-3-carbonitrile] | 30.1 |  | IC50 [2]: 8.3 nM
11 | COc1cccc(CN2CCN(c3ccc(-c4cc(-c5cnn(C)c5)cn5ncc(C#N)c45)cn3)CC2)n1 [Example 399, 4-(6-(4-((6-methoxypyridin-2-yl)methyl)piperazin-1-yl)pyridin-3-yl)-6-(1-methyl-1H-pyrazol-4-yl)pyrazolo[1,5-a]pyridine-3-carbonitrile] | 10.8 | 7.7 | 
12 | CN(C)C(=O)C1CCN(c2ccc(-c3cc(-c4cnn(C)c4)cn4ncc(C#N)c34)cn2)CC1 [Example 562, 1-(5-(3-cyano-6-(1-methyl-1H-pyrazol-4-yl)pyrazolo[1,5-a]pyridine-4-yl)pyridine-2-yl)-N,N-dimethylpiperidine-4-carboxamide 2,2,2-trifluoroacetate] |  | 58.6 | IC50 [3]: 56 nM
13 | CC(C)S(=O)(=O)CCN1CCN(c2ccc(-c3cc(-c4cnn(C)c4)cn4ncc(C#N)c34)cn2)CC1 [Example 403, 4-(6-(4-(2-(isopropylsulfonyl)ethyl)piperazin-1-yl)pyridin-3-yl)-6-(1-methyl-1H-pyrazol-4-yl)pyrazolo[1,5-a]pyridine-3-carbonitrile] | 10.8 | 4.6 | 

Now from value to molecule, other results behind:

Row | IC50 ([3]; wild type RET, 1 mM ATP) [nM] | IC50 [2, 5] [nM] | Structure (SMILES) | other results
14 | 23.9 |  | C[C@@H](O)C(=O)N1CCN(c2ccc(-c3cc(-c4cnn(C)c4)cn4ncc(C#N)c34)cn2)CC1 [Example 32, (R)-4-(6-(4-(2-hydroxypropanoyl)piperazin-1-yl)pyridin-3-yl)-6-(1-methyl-1H-pyrazol-4-yl)pyrazolo[1,5-a]pyridine-3-carbonitrile] | IC50 ([1]; 10% FBS): 749 nM; IC50 [2, 6]: 108 nM
15 | 12.4 |  | CC(C)[C@H](O)C(=O)N1CCN(c2ccc(-c3cc(-c4cnn(C)c4)cn4ncc(C#N)c34)cn2)CC1 [Example 54, (S)-4-(6-(4-(2-hydroxy-3-methylbutanoyl)piperazin-1-yl)pyridin-3-yl)-6-(1-methyl-1H-pyrazol-4-yl)pyrazolo[1,5-a]pyridine-3-carbonitrile] | IC50 ([1]; 10% FBS): 1480 nM; IC50 [2, 6]: 66.6 nM
16 | 140 | 215 | CCc1cnn2cc(-c3cnn(C)c3)cc(-c3ccc(N4CCNCC4)nc3)c12 [Example 657, 3-ethyl-6-(1-methyl-1H-pyrazol-4-yl)-4-(6-(piperazin-1-yl)pyridin-3-yl)pyrazolo[1,5-a]pyridine] | 
17 | 34.4 | 63 | Cn1cc(-c2cc(-c3ccc(N4CCN(Cc5ccccc5)CC4)nc3)c3c(Cl)cnn3c2)cn1 [Example 647, 4-(6-(4-benzylpiperazin-1-yl)pyridine-3-yl)-3-chloro-6-(1-methyl-1H-pyrazol-4-yl)pyrazolo[1,5-a]pyridine] | 
18 | 153 |  | CC(C)(C)OC(=O)N1CCN(c2ccc(-c3cc(-c4cnn(C(F)F)c4)cn4ncc(C#N)c34)cn2)CC1 [Example 265, tert-Butyl 4-(5-(3-cyano-6-(1-(difluoromethyl)-1H-pyrazol-4-yl)pyrazolo[1,5-a]pyridin-4-yl)pyridin-2-yl)piperazine-1-carboxylate] | IC50 [2, 6]: 289 nM
19 | 15.3 | 5.6 | COc1ccc(CN2CCN(c3ccc(-c4cc(-c5cnn(CC(C)(C)O)c5)cn5ncc(C#N)c45)cn3)CC2)cn1 [Example 702, 6-(1-(2-hydroxy-2-methylpropyl)-1H-pyrazol-4-yl)-4-(6-(4-((6-methoxypyridin-3-yl)methyl)piperazin-1-yl)pyridin-3-yl)pyrazolo[1,5-a]pyridine-3-carbonitrile] | 
20 | 35.8 |  | Cn1cc(-c2cc(-c3ccc(N4CCN(C(=O)OC(C)(C)C)CC4)nc3)c3c(C#N)cnn3c2)cn1 [Example 1, tert-butyl 4-(5-(3-cyano-6-(1-methyl-1H-pyrazol-4-yl)pyrazolo[1,5-a]pyridin-4-yl)pyridin-2-yl)piperazine-1-carboxylate] | IC50 [2, 6]: 47.5 nM
21 | 37.1 | 48.5 | COC(CN1CCN(c2ccc(-c3cc(-c4cnn(C)c4)cn4ncc(C#N)c34)cn2)CC1)C(C)(C)C (centres unmarked) [Example 417, 4-(6-(4-(2-methoxy-3,3-dimethylbutyl)piperazin-1-yl)pyridin-3-yl)-6-(1-methyl-1H-pyrazol-4-yl)pyrazolo[1,5-a]pyridine-3-carbonitrile] | 
22 | 13.6 | 24.1 | Cn1cc(-c2cc(-c3ccc(N4CCN(Cc5ccc(OC(F)F)nc5)CC4)nc3)c3c(C#N)cnn3c2)cn1 [Example 675, 4-(6-(4-((6-(difluoromethoxy)pyridin-3-yl)methyl)piperazin-1-yl)pyridin-3-yl)-6-(1-methyl-1H-pyrazol-4-yl)pyrazolo[1,5-a]pyridine-3-carbonitrile] | 
23 | 9 | 146 | Cn1cc(-c2cc(-c3ccc(N4CCC(C(=O)NOCCO)CC4)nc3)c3c(C#N)cnn3c2)cn1 [Example 566, 1-(5-(3-cyano-6-(1-methyl-1H-pyrazol-4-yl)pyrazolo[1,5-a]pyridin-4-yl)pyridin-2-yl)-N-(2-hydroxyethoxy)piperidine-4-carboxamide] | 

Source: patent US10023570B2 (Array BioPharma, Inc., priority 2015, dated 2018)
